Key:
human c-20S β5c = human c-20S β5c (Homo sapiens, UniProt P28074); test: IC50 determination against human c-20S β5c; format: biochemical; conditions: relative to the parent compound of the sentence
human i-20S β5i [1] = molecular target: T1, human i-20S β5i (Homo sapiens, UniProt P28062); conditions: previously reported; cited from earlier work
human i-20S β5i [2] = molecular target: T1, human i-20S β5i; test: IC50 determination against human i-20S β5i; format: biochemical; conditions: for inhibitory activity against β5i (SAR statement in words): relative to the parent compound of the sentence; for reduction in β5i activity: relative to PKS2086
cathepsin L = cathepsin L (Homo sapiens, UniProt P07711); test: Protease counter-screen, cathepsin L; format: biochemical; conditions: compounds at 100, 33.3 and 11.1 μM
Chain of cathepsin L (P07711 114-333, species assumed): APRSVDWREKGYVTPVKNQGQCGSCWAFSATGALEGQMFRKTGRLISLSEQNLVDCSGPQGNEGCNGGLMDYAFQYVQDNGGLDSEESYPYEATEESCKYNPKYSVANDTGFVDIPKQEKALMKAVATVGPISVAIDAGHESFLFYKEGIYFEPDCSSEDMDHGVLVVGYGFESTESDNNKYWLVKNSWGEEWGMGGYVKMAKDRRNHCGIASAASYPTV

α-chymotrypsin = α-chymotrypsin (Bos taurus, UniProt P00766); test: Protease counter-screen, α-chymotrypsin; format: biochemical; conditions: compounds at 100, 33.3 and 11.1 μM
[3] = system: T cell proliferation in PBMCs; test: Human PBMC proliferation assay; format: cell-based

SMILES | inhibitory activity against β5c (SAR statement in words) (human c-20S β5c) | inhibitory activity against β5i (SAR statement in words) (human i-20S β5i [2]) | also measured
COC[C@H](NC(=O)[C@H](CC(=O)N(C)C)NC(=O)CCc1ccccc1)C(=O)NCc1cccc2ccccc12 [Compound 2230BP] | significant loss of affinity |  | 
CC(C)(C)ONC(=O)C[C@H](NC(=O)CCc1ccccc1)C(=O)N[C@@H](Cc1ccc(F)cc1)C(=O)NCc1cccc2ccccc12 [DPLG3] |  |  | β5i inhibitory potency (human i-20S β5i [1]): single-digit nanomolar potency
COC[C@H](NC(=O)CCc1ccccc1)C(=O)N[C@@H](C)C(=O)NCc1cccc2ccccc12 [PKS2048] | abolished the inhibitory activities | abolished the inhibitory activities | 
C[C@H](NC(=O)[C@H](CC(=O)NOC(C)(C)C)NC(=O)CCc1ccccc1)C(=O)NCc1ccnc2ccccc12 [PKS2068] | eliminated inhibitory activity | eliminated inhibitory activity | 
C[C@H](NC(=O)[C@H](CC(=O)NOC(C)(C)C)NC(=O)CCc1ccccc1)C(=O)NCc1cccc2ncccc12 [PKS2073] | eliminated inhibitory activity | eliminated inhibitory activity | 
C[C@H](NC(=O)[C@H](CC(=O)NOC(C)(C)C)NC(=O)CCc1ccccc1)C(=O)NCc1cccc2[nH]ccc12 [PKS2083] | increased activity against β5c | decreased potency against β5i | 
COC[C@H](NC(=O)[C@H](CC(=O)NOC(C)(C)C)NC(=O)CCc1ccccc1)C(=O)NCc1cccc(OC)c1 [PKS2160] |  |  | selectivity for β5i over β5c (statement in words) (human i-20S β5i [2]): abolished selectivity
COC[C@H](NC(=O)[C@H](CC(=O)N1CCC1)NC(=O)CCc1ccccc1)C(=O)NCc1cccc2ccccc12 [PKS2209] | significant loss of affinity |  | 
COC[C@H](NC(=O)[C@H](CC(=O)NOC(C)(C)C)NC(=O)CCc1ccccc1)C(=O)NCc1cccc(OC)c1OC [PKS2211] |  |  | selectivity for β5i over β5c (statement in words) (human i-20S β5i [2]): abolished selectivity
COC[C@H](NC(=O)[C@H](CC(=O)NOC(C)(C)C)NC(=O)CCc1ccccc1)C(=O)NCc1cccc2cccnc12 [PKS2220] |  |  | reduction in β5i activity (human i-20S β5i [2]): 19 fold
COC[C@H](NC(=O)[C@H](CC(=O)NOC(C)(C)C)NC(=O)CCc1ccccc1)C(=O)NCc1cccc2c1NCCC2 [PKS2226] |  |  | reduction in β5i activity (human i-20S β5i [2]): 114 fold
C[C@H](NC(=O)[C@H](CC(=O)NC(C)(C)C)NC(=O)C(=O)c1c[nH]c2ccccc12)C(=O)NCc1cccc2ccccc12 [PKS3053] |  |  | inhibition of cathepsin L (cathepsin L): weak inhibition; inhibition of α-chymotrypsin (α-chymotrypsin): weak inhibition; activity against T cells relative to comparator ([3]; compared to PKS21210): two times more active; activity against T cells relative to comparator ([3]; compared to PKS21272): > 3 times
NC(=O)C[C@H](NC(=O)CCc1ccccc1)C(=O)N[C@@H](Cc1ccc(F)cc1)C(=O)NCc1cccc2ccccc12 [PKS21083] | abolished the inhibitory activities |  | 
C[C@H](NC(=O)[C@H](CCC(=O)NC(C)(C)C)NC(=O)CCc1ccccc1)C(=O)NCc1ccc(F)c2ccccc12 [PKS21210] |  | equipotent | 
COC[C@H](NC(=O)[C@H](CCC(=O)NC(C)(C)C)NS(=O)(=O)c1ccc(C)cc1)C(=O)NCc1ccc(F)c2ccccc12 [PKS21265] |  |  | greater potency against T cells ([3]; compared to PKS21209): 2 fold; greater potency against T cells ([3]; compared to PKS21266): 5 fold

Reference: PMC8086754 (Journal of medicinal chemistry, 2020)
